# Experimental data: PubChem BioAssay (NCI)
#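 Results reflect a 48-hour exposure of cells in 96-well plates to compound at five concentrations. GI50 is the concentration that inhibits growth by half. Definition used: TGI = concentration required for complete inhibition of growth.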
# Columns and labels:
# Assay in all cases: growth of human tumour cells (NCI), 48 h
# OVCAR-5 ovarian = test system: OVCAR-5 ovarian
# UO-31 renal = test system: UO-31 renal
# HCT-15 colon = test system: HCT-15 colon
# A549 NSCLC = test system: A549 NSCLC
# OVCAR-3 ovarian = test system: OVCAR-3 ovarian
# NCI-H226 lung = test system: NCI-H226 lung
# SNB-75 CNS = test system: SNB-75 CNS
# SK-MEL-2 melanoma = test system: SK-MEL-2 melanoma
# PC-3 prostate = test system: PC-3 prostate
# HS 578T breast = test system: HS 578T breast
SMILES,TGI (OVCAR-5 ovarian) [µM],TGI (UO-31 renal) [µM],TGI (HCT-15 colon) [µM],TGI (A549 NSCLC) [µM],TGI (OVCAR-3 ovarian) [µM],TGI (NCI-H226 lung) [µM],TGI (SNB-75 CNS) [µM],TGI (SK-MEL-2 melanoma) [µM],TGI (PC-3 prostate) [µM],TGI (HS 578T breast) [µM],GI50 (OVCAR-5 ovarian) [µM],GI50 (UO-31 renal) [µM],GI50 (HCT-15 colon) [µM],GI50 (A549 NSCLC) [µM],GI50 (OVCAR-3 ovarian) [µM],GI50 (PC-3 prostate) [µM],GI50 (HS 578T breast) [µM],GI50 (SNB-75 CNS) [µM],GI50 (SK-MEL-2 melanoma) [µM]
N#CCC(=O)N/N=C1/C(=O)N(c2cc(Cl)ccc2Cl)C(=O)C(=O)C1c1nc2ccccc2s1 (stereo not drawn),> 100,> 100,> 100,> 100,> 100,> 100,> 100,> 100,,,,,,,,,,,
NS(=O)(=O)c1ccc(NC(=O)Cc2nc3ccccc3s2)cc1,35.2,62.6,32.3,37.9,30.4,33,30.4,31.9,,,,,,,,,,,
CSc1ccc2c(cc1=O)[C@@H](NC(=O)c1ccc(Cl)cc1)CCc1cc(O)c(O)c(O)c1-2,> 100,> 100,51.7,> 100,56.5,> 100,> 100,> 100,,,,,,,,,,,
CCN(CC)CC(C)C(=O)/C=C/c1ccc(C)cc1 (stereo not drawn),28,26.4,5.71,13.4,9.93,31.3,3.17,,,,,,,,,,,,
CSc1nc2nn(Cc3ccccc3)cc2c(=O)[nH]1,> 100,> 100,> 100,> 100,> 100,> 100,> 100,> 100,,,,,,,,,,,
O=C(N/C(=C\c1cccc([N+](=O)[O-])c1)c1nc2ccccc2[nH]1)c1ccccc1,> 100,69.4,> 100,> 100,> 100,> 100,> 100,> 100,,,,,,,,,,,
CC(C)(C)c1cc(CCCCCCCC2(CCCCCCCc3cc(C(C)(C)C)cc(C(C)(C)C)c3)OC(COCCOCCCCCC#N)C(COCCOCCCCCC#N)O2)cc(C(C)(C)C)c1 (stereo not drawn),> 100,> 100,> 100,> 100,> 100,> 100,> 100,> 100,,,,,,,,,,,
O=C(/C=C/c1ccccc1O)c1ccc([N+](=O)[O-])cc1,41.1,33.2,46.8,48.9,25.5,46.1,31.6,66.8,,,,,,,,,,,
CCn1c2ccccc2c(=O)c2c(OC)ccc(OC)c21,> 100,> 89.9,> 100,> 100,> 100,> 100,,> 100,,,,,,,,,,,
COC(=O)c1ncc2c(=O)[nH]c3ccccc3c2c1C(=O)OC,> 100,> 100,> 100,> 100,> 100,> 100,> 100,> 100,,,,,,,,,,,
CC(C)(C)C(=O)Nc1cccc2oc(-c3ccccc3)cc12,,> 100,> 100,> 100,> 100,,> 100,> 100,,,,,,,,,,,
O=C(NCCCl)Nc1cccnc1,,50.3,66.7,99.5,83.2,30.5,63.1,> 100,> 100,,,,,,,,,,
O=C(O)c1ccc(C(O)(c2ccccc2)c2ccccc2)cc1,> 100,> 100,> 100,> 100,> 100,,,,> 100,> 100,,,,,,,,,
Cc1[nH]c2ccccc2c1CC/C(=N\Nc1ccccc1)c1ccccc1,> 100,> 100,> 100,> 100,> 100,> 100,> 100,> 100,,,,,,,,,,,
CN(C)CC(=O)Nc1ccc2ncnc(Nc3ccc(Oc4cccc(C(F)(F)F)c4)c(Cl)c3)c2c1,12.9,2.32,3.1,10.2,3.51,,2.82,4.37,4.5,4.58,3.04,0.951,1.48,2.82,1.61,1.82,1.78,1.33,2.04
CCOC(=O)C1=C(C)NC(=O)NC1CN1C(=O)c2ccccc2C1=O (stereo not drawn),> 100,> 100,> 100,> 100,> 100,,> 100,> 100,> 100,> 100,> 100,> 100,> 100,> 100,> 100,> 100,> 100,> 100,> 100
